Reference: patent US5972946A, “Acetamide derivative, process for preparing the same, and a pharmaceutical composition containing the same” (Dainippon Pharmaceutical Co., Ltd., priority 1995, dated 1999)
pIC50: −log10 of the molar value.

Target: peripheral (ω3) benzodiazepine (BZ) receptor (Rattus norvegicus, UniProt P16257)
Assay: BZω3 (peripheral-type) benzodiazepine receptor binding assay
Procedure: Experiment 1: Central (ω1, ω2) and peripheral (ω3) benzodiazepine (BZ) receptor binding assays
BZω1 and BZω2 receptor binding assays were carried out according to the method of Stephens, D. N. et al. [cf.
Receptor membrane fractions for ω1, ω2 and ω3 were prepared from the cerebellum (ω1), spinal cord (ω1) or kidney (ω3) in 7-8 week old male rats of Wistar strain by the procedure described below.
After the cerebellum or spinal cord was homogenized with 20 volumes of ice-cold 50 mM Tris-citrate buffer (pH 7.1), the homogenate was centrifuged for 15 minutes at 40,000 g. The pellet obtained was washed 4 times by the same procedure, frozen and stored for 24 hours at -60° C. The resulting pellet, after being thawed, washed with the buffer and centrifuged, was suspended in the buffer I for the binding assay (50 mM Tris-HCl buffer containing 120 mM NaCl, 5 mM KCl, 2 mM CaCl2 and 1 mM MgCl2 ; pH 7.4) and the suspension thus obtained (containing 1 g wet tissue/40 ml) was used for the BZω1 and BZω2 receptor binding assays. On the other hand, the kidney was homogenized with 20 volumes of the ice-cold buffer II for the binding assay (50 mM Na--K phosphate buffer containing 100 mM NaCl; pH 7.4), filtered through 4 sheets of gauze, and centrifuged for 20 minutes at 40,000 g. The pellet obtained was suspended in the buffer II and the suspension (containing 1 g wet tissue/100 ml) was used for the binding assay as BZω3 receptor membrane source.
Flumazenil (final concentration: 0.3 nM for (ω1 and 1 nM for ω2) and flunitrazepam (final concentration: 10 μM) were used for the BZω1 or BZω2 receptor binding assays as the isotope-labeled and unlabeled ligands, respectively. For the BZω3 receptor binding assay, [^3 H] 4'-chlorodiazepam (7-chloro-1,3-dihydro-1-methyl-5-(4-chlorophenyl)-2H-1,4-benzodiazepin-2-one) (final concentration: 0.5 nM) and diazepam (final concentration: 100 μM) were used as the isotope-labeled and unlabeled ligands, respectively. Incubation was performed for 30 minutes at 37° C. in the BZω1 or BZω2 receptor binding assays, and for 150 minutes at 0° C. in the BZω3 receptor binding assay. The BZω1 or BZω2 receptor binding assays were carried out in the presence of bicuculline (final concentration: 100 μM).
The binding assay was performed by the following procedure. After adding each test compound at certain known concentrations, a [^3 H] ligand and the buffer I or II to each test tube, each assay was started by addition of membrane preparation (total volume of 1 ml). After incubation, the assay was terminated by filtration with suction through a Whatman GF/B glass fiber filter using a cell harvester (Brandel, USA). The filters were rapidly washed 3 times with 5 ml of ice-cold 50 mM Tris-HCl buffer (pH 7.7) for ω1 and ω2, or the buffer II forω3, and transferred to scintillation vials containing 10 ml liquid scintillation cocktail (ACS-II, Amersham, USA). After a few hours, retained radioactivity was counted by a liquid scintillation spectrometer. Specific binding of [^3 H] ligands was calculated as the difference between amounts of radioactivity bound in the presence and absence of excess unlabeled ligands.

Row | Structure (SMILES) | pIC50
1 | Cc1nc(-c2cccc(Cl)c2)nc(OCC(=O)N(C)c2ccccc2)c1C [Example 145] | 8.80
2 | CN(C(=O)COc1nc(-c2ccc(Cl)cc2)nc2c1CCCC2)c1ccc(Cl)cc1 [Example 163] | 8.58
3 | CCCN(CCC)C(=O)CNc1nc(-c2ccccc2)ncc1CO [Example 127, 2-(5-hydroxymethyl-2-phenyl-4-pyrimidinylamino)-N,N-dipropylacetamide] | 8.36
4 | CCCN(CCC)C(=O)CNc1nc(-c2ccc(Cl)cc2)nc2c1CCCC2 [Example 104] | 8.46
5 | CCCN(CCC)C(=O)CNc1nc(-c2ccccc2)nc(-c2ccccc2)c1C [Example 97] | 8.64
6 | Cc1nc(-c2ccccc2)nc(OCC(=O)N(C)c2ccccc2)c1C [Example 143] | 8.85
7 | CCCCN(C(=O)CNc1nc(-c2ccccc2)nc(C)c1C)c1ccccc1 [Example 57] | 8.27
8 | CC1CN(C(=O)COc2nc(-c3ccc(Cl)cc3)nc3c2CCCC3)CC(C)O1 (centres unmarked) [Example 195, 4-[2-(4-Chlorophenyl)-5,6,7,8-tetrahydro-4-quinazolinyloxy] acetyl-2,6-dimethylmorpholine] | 8.70
9 | CCCN(CCC)C(=O)C1CCCN1c1nc(-c2ccccc2)nc2c1CCCC2 (centres unmarked) [Example 119, 1-(5,6,7,8-Tetrahydro-2-phenyl-4-quinazolinyl)-N,N-dipropyl-2-pyrrolidinecarboxamide] | 8.84
10 | CCCN(CCC)C(=O)COc1nc(-c2ccccc2)nc(-c2ccccc2)c1C [Example 159] | 8.70
11 | CCN(CC)C(=O)COc1nc(-c2ccccc2)nc2c1CCCC2 [Example 179] | 8.37
12 | CCCN(CCC)C(=O)C1Cc2ccccc2N1c1nc(-c2ccccc2)nc(C)c1C (centres unmarked) [Example 81, 2,3-dihydro-1-(5,6-dimethyl-2-phenyl-4-pyrimidinyl)-N,N-dipropyl-1H-indole-2-carboxamide] | 8.16
13 | O=C(COc1nc(-c2ccccc2)nc2c1CCCC2)Nc1ccc(F)cc1 [Example 183] | 8.06
14 | CN(C(=O)COc1nc(-c2ccccc2)nc2c1CCCC2)c1ccccc1 [Example 180] | 8.78
15 | CN(C(=O)CNc1nc(-c2ccc(Cl)cc2)nc2c1CCCC2)c1ccc(Cl)cc1 [Example 109] | 8.68
16 | CCCCN(CCCC)C(=O)COc1nc(-c2ccc(Cl)cc2)nc2c1CCCC2 [Example 135] | 8.50
17 | Cc1nc(-c2ccccc2)nc(N(C)CC(=O)N(C)c2ccc(Cl)cc2)c1C [Example 76] | 8.88

Row | Structure (SMILES) | pIC50
18 | CCCCN(CCCC)C(=O)CNc1nc(-c2ccccc2)nc2c1CCCC2 [Example 105] | 8.38
19 | CN(C(=O)COc1nc(-c2ccc(Cl)cc2)nc2c1CCCC2)c1ccccc1 [Example 181] | 8.79
20 | CCCN(CCC)C(=O)CN(C)c1nc(-c2ccccc2)nc2c1CCCC2 [Example 110] | 8.70
21 | CCCN(CCC)C(=O)COc1cc(-c2ccccc2)nc(-c2ccccc2)n1 [Example 158] | 8.39
22 | CCN(C(=O)COc1nc(-c2ccc(C(F)(F)F)cc2)nc(C)c1C)c1ccccc1 [Example 155] | 9.12
23 | CCCN(C(=O)COc1nc(-c2ccccc2)nc2c1CCCC2)c1ccccc1 [Example 182] | 8.34
24 | CCCCN(CCCC)C(=O)CNc1nc(-c2ccc(F)cc2)nc2c1CCCC2 [Example 106] | 8.37
25 | CCCCN(CCCC)C(=O)CNc1nc(-c2ccc(Cl)cc2)nc2c1CCCC2 [Example 107] | 8.37
26 | CN(CC(=O)N(C)c1ccc(Cl)cc1)c1nc(-c2ccccc2)nc2c1CCCC2 [Example 111] | 8.69
27 | CCc1c(C)nc(-c2ccccc2)nc1NCC(=O)N(C)c1ccc(Cl)cc1 [Example 84, N-(4-chlorophenyl)-2-(5-ethyl-6-methyl-2-phenyl-4-pyrimidinylamino)-N-methylacetamide] | 8.69
28 | CCCN(CCC)C(=O)COc1cc(C(F)(F)F)nc(-c2ccccc2)n1 [Example 160] | 8.37
29 | CCCCN(CCCC)C(=O)COc1nc(-c2ccccc2)nc2c1CCCC2 [Example 133] | 8.66
30 | CN(C(=O)C1CCCN1c1nc(-c2ccccc2)nc2c1CCCC2)c1ccc(Cl)cc1 (centres unmarked) [Example 120, N-(4-Chlorophenyl)-1-(5,6,7,8-tetrahydro-2-phenyl-4-quinazolinyl)-N-methyl-2-pyrrolidinecarboxamide 1/4 hydrate] | 8.79
31 | Cc1nc(-c2ccc(Cl)cc2)nc(NCC(=O)N2CC(C)OC(C)C2)c1C (centres unmarked) [Example 68, 4-[2-(4-Chlorophenyl)-5,6-dimethyl-4-pyrimidinylamino]acetyl-2,6-dimethylmorpholine] | 8.66
32 | CN(Cc1ccccc1)C(=O)COc1nc(-c2ccccc2)nc2c1CCCC2 [Example 188] | 8.28
33 | CCCN(CCC)C(=O)CNc1nc(-c2ccc(F)cc2)nc2c1CCCC2 [Example 103] | 8.54
34 | CCCN(CCC)C(=O)COc1cc(C)nc(-c2ccccc2)n1 [Example 166, 2-(6-methyl-2-phenyl-4-pyrimidinyloxy)-N,N-dipropylacetamide] | 8.27

The remaining molecules from weak to strong by pIC50, led by results:

Row | pIC50 | Structure (SMILES)
35 | 8.88 | CCCN(CCC)C(=O)COc1nc(-c2cccc(Cl)c2)nc2c1CCCC2 [Example 130]
36 | 8.92 | CN(C(=O)COc1nc(-c2ccccc2)nc2c1CCCC2)c1ccc(Cl)cc1 [Example 162]
37 | 8.94 | CCCN(CCC)C(=O)C(C)Oc1nc(-c2ccccc2)nc2c1CCCC2 (centres unmarked) [Example 169, 2-(5,6,7,8-tetrahydro-2-phenyl-4-quinazolinyloxy)-N,N-dipropylpropanamide]
38 | 8.97 | CCCN(CCC)C(=O)C(CO)Nc1nc(-c2ccccc2)nc2c1CCCC2 (centres unmarked) [Example 118, 3-hydroxy-2-(5,6,7,8-tetrahydro-2-phenyl-4-quinazolinylamino)-N,N-dipropylpropanamide]
39 | 8.98 | CCCN(CCC)C(=O)COc1nc(-c2ccccc2)nc2c1CCCC2 [Example 161]
40 | 9.00 | Cc1nc(-c2ccccc2)nc(OCC(=O)N2CC(C)CC(C)C2)c1C (centres unmarked) [Example 170, 3,5-dimethyl-1-(5,6-dimethyl-2-phenyl-4-pyrimidinyloxy)acetylpiperidine]
41 | 9.03 | CCCN(CCC)C(=O)COc1nc(-c2ccc(Cl)cc2)nc(C)c1C [Example 137]
42 | 9.05 | CCCN(CCC)C(=O)COc1nc(-c2ccc(Cl)cc2)nc2c1CCCC2 [Example 131]
43 | 9.09 | CN(C(=O)COc1nc(-c2ccccc2)nc2c1CCCC2)c1ccc(F)cc1 [Example 184]
44 | 9.10 | CCCN(CCC)C(=O)COc1nc(-c2ccc(F)cc2)nc2c1CCCC2 [Example 128, 2-[2-(4-fluorophenyl)-5,6,7,8-tetrahydro-4-quinazolinyloxy]-N,N-dipropylacetamide]
45 | 9.28 | CCCN(CCC)C(=O)COc1nc(-c2ccc(F)cc2)nc(C)c1C [Example 138]
46 | 9.28 | Cc1nc(-c2ccc(C(F)(F)F)cc2)nc(OCC(=O)N(C)c2ccccc2)c1C [Example 147]
47 | 9.49 | CCN(C(=O)CNc1nc(-c2ccccc2)nc(C)c1C)c1ccc(Cl)cc1 [Example 51]
48 | 9.55 | COc1ccc(-c2nc(C)c(C)c(NCC(=O)N(C)c3ccccc3)n2)cc1 [Example 26]
49 | 9.64 | CCN(C(=O)CNc1nc(-c2ccc(C(F)(F)F)cc2)nc(C)c1C)c1ccccc1 [Example 49]
50 | 9.74 | CCCN(CCC)C(=O)CNc1nc(-c2ccccc2)nc(CC)c1C [Example 85, 2-(6-ethyl-5-methyl-2-phenyl-4-pyrimidinylamino)-N,N-dipropylacetamide]
